Active and inactive are the calls of the source.
What was measured:
[1] = microbe, parasite or virus in culture; format: functional; details: Mycobacterium tuberculosis
[2] = target: Heat shock protein HSP 90-alpha (Homo sapiens, UniProt P07900); format: functional, organism-based
[3] = target: T1, Heat shock factor protein 1 (Mus musculus, UniProt P38532); test: HSF1 potentiators in luciferase reporter cells, confirmation, cell-based, NIH3T3, luminescence, dose retest (AID 435004); format: functional;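 also: stress induced by proteasome inhibitor MG132 added 30 min after compound; luciferase reporter driven by HSF1 response element in NIH3T3 cells; actives raise luminescence as potentiators of the MG132 stress response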
T1 sequence (P38532 whole entry): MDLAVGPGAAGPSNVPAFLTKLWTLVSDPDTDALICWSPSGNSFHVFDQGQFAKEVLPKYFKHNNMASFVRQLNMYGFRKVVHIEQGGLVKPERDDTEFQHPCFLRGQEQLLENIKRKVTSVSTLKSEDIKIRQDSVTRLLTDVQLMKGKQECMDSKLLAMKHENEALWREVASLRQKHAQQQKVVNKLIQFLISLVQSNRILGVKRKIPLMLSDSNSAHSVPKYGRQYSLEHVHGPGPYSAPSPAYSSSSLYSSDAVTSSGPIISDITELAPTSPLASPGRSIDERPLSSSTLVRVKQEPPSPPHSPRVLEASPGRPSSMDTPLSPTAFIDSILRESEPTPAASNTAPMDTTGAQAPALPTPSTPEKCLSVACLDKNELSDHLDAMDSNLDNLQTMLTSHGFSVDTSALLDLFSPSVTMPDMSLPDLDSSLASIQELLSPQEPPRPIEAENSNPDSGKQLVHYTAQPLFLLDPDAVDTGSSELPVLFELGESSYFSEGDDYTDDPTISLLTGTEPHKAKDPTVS

[4] = inhibitors of intracellular T. cruzi replication, confirmation, NIH3T3 host cells, beta-gal luminescence (AID 2044); format: functional, cell-based;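 also: intracellular parasites grown in NIH/3T3 mouse fibroblasts as host cells; luminescent beta-galactosidase reporter signal from transgenic T. cruzi replicating inside host cells; inhibitors lower the luminescence signal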
Fatty acid synthase [5] = target: T2, Fatty acid synthase (Homo sapiens, UniProt P49327); test: FAS thioesterase domain inhibitors, dose response, biochemical, kinetic fluorescence intensity (AID 624326); format: functional;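 also: rate of fluorescence rise from hydrolysis of a fluorogenic O-methyl fluorescein ester substrate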
T2 sequence (P49327 whole entry, the tested form may be a part): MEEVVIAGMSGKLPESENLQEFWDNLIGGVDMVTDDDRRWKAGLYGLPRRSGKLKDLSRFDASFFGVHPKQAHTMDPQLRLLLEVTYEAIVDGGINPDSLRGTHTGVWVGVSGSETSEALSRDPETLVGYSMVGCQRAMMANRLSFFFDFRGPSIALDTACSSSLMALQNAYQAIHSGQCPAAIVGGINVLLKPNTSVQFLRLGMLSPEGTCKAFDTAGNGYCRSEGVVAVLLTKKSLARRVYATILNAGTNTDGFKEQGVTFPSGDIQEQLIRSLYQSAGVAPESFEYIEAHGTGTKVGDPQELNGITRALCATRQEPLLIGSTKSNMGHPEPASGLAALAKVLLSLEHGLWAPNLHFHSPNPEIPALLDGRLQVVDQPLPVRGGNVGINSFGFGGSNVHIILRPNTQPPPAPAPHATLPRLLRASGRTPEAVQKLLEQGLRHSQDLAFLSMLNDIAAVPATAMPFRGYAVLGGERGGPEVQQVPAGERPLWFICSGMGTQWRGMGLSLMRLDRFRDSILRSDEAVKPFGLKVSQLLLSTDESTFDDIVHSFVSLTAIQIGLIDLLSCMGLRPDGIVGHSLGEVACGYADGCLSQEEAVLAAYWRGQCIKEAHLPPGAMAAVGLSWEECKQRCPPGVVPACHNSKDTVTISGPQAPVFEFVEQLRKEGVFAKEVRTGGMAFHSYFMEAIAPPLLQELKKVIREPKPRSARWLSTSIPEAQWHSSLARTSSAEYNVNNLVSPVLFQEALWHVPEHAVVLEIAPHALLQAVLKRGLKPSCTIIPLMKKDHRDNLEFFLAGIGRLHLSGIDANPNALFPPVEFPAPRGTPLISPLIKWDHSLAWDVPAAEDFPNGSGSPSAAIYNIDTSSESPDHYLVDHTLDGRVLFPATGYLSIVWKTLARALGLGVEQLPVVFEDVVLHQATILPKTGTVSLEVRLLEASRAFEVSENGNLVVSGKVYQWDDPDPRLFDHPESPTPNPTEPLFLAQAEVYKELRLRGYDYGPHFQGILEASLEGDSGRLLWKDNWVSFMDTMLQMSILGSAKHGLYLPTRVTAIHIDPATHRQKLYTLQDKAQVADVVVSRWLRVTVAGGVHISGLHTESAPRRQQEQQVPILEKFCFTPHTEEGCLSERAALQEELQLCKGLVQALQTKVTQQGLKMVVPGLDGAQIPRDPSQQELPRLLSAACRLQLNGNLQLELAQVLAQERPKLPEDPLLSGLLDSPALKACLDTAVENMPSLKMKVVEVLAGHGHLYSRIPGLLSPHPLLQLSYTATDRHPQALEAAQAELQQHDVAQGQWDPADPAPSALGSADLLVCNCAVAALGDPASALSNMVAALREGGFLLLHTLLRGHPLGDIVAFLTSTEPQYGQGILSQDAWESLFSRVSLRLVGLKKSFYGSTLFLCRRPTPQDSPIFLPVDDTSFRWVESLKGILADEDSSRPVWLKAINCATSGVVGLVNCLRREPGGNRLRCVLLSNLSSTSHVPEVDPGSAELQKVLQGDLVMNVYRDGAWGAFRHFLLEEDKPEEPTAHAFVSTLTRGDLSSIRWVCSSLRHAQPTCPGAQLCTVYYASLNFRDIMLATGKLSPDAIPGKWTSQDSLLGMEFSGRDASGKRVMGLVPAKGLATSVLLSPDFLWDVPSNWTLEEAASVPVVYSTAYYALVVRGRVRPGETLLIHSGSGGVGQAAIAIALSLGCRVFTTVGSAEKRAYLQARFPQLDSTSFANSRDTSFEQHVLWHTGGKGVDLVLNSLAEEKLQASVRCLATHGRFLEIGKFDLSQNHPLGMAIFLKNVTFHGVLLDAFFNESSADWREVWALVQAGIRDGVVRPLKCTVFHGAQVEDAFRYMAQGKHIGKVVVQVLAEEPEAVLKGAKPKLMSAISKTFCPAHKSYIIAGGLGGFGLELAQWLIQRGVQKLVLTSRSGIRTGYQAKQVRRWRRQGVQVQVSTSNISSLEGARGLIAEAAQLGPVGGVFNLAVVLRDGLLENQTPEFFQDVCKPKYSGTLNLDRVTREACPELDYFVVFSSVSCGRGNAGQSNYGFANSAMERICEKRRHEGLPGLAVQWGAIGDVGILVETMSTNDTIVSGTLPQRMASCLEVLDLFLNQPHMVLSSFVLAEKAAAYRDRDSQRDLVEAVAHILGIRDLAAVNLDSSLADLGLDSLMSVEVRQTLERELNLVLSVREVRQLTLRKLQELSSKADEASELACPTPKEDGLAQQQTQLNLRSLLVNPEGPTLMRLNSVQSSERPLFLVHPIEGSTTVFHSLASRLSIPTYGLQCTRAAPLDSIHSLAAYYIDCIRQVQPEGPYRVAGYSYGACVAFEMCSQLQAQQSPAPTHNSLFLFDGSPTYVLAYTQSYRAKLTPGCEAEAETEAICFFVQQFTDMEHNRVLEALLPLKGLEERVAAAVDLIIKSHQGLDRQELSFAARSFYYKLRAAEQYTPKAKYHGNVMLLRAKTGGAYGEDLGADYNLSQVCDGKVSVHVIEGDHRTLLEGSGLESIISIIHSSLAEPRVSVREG

[6] = cytotoxicity toward NIH3T3 fibroblasts, dose response, counter-screen, cell-based, ATP luminescence, mouse fibroblasts (AID 2010); format: functional;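 also: cells exposed to compound for about 90 hours before reading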
Fatty acid synthase [7] = target: T2, Fatty acid synthase; test: FAS thioesterase domain inhibitors, dose response, biochemical, endpoint fluorescence intensity, uHTS hits (AID 624327); format: functional;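 also: fluorescence from hydrolysis of an O-methyl fluorescein acyl ester substrate by the enzyme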
Cytochrome P450 3A4 = Cytochrome P450 3A4 (Homo sapiens, UniProt P08684);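 also: CYP3A4 tested as one member of a cytochrome P450 panel screen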
Chain of Cytochrome P450 3A4 (P08684 whole entry): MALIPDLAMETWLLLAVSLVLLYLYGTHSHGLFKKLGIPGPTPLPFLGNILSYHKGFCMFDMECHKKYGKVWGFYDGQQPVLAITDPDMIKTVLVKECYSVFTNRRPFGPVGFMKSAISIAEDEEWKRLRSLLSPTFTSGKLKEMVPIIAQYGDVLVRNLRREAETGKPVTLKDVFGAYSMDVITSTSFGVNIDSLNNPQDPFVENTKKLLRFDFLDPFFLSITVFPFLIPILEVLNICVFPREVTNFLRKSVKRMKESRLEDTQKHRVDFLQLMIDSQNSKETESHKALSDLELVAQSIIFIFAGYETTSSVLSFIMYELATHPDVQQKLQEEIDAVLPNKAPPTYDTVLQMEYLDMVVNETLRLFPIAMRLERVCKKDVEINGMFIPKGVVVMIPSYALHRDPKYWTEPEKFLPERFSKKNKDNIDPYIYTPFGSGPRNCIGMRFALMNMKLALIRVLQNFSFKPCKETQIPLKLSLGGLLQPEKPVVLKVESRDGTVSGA

[8] = inhibitors of firefly luciferase expression or activity, dose response, H4 neuroglioma cells, luminescence (AID 1990); format: functional, cell-based
[9] = Luminescence Cell-Based Dose Response HTS to Identify Inhibitors of 5'UTR Stem-Loop Driven Prion Protein mRNA Translation in H4 Neuroglioblastoma Cells. [Related pubchem assays: 1827 (Project Summary), 1813 (Primary HTS)]; format: functional
[10] = inhibitors of SNCA 5'UTR-driven reporter translation, confirmation, H4 neuroglioma cells, luminescence (AID 1988); format: functional, cell-based
[11] = tested on: Streptococcus sp. 'group A'; test: growth inhibition of control SK(-) GAS strain, dose response, counter-screen for streptokinase expression inhibitor project, luminescence, kanamycin, BacTiterGlo, confirmation (AID 1900); format: functional, organism-based
Streptokinase A = target: T3, Streptokinase A (Streptococcus pyogenes serotype M1, UniProt P10520); test: S. pyogenes streptokinase expression inhibitors, potency, dose response, plasminogen activation absorbance, OD405 (AID 1914); format: functional, Streptococcus pyogenes M1 GAS;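 also: secreted streptokinase activity via plasminogen activation per viability signal from cell pellet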
T3 sequence (P10520 whole entry): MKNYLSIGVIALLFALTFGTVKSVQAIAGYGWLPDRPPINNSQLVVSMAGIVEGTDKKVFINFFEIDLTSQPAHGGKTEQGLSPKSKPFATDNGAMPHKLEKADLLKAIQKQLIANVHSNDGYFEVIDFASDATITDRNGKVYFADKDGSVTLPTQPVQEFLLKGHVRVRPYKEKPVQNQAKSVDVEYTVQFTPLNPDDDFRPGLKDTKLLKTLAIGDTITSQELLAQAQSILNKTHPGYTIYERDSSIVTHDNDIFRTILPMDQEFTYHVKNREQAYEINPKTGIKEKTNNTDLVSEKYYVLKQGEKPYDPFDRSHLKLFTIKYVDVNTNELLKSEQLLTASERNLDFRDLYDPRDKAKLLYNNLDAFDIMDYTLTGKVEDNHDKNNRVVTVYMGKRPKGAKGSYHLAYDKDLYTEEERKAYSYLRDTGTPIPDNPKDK

Streptococcus = test: Group A Streptococcus viability loss, dose response, counter-screen for streptokinase expression inhibitor project, luminescence, BacTiterGlo (AID 1915); format: functional, organism-based;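 also: potency for reduction of bacterial viability or growth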
INS1 = test: beta cell apoptosis inhibitors, cytokine rescue, dose response, luminescence, retest (AID 449756); format: functional, cell-based; details: Rattus norvegicus;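 also: cell death triggered by IL-1 beta plus TNF-alpha plus IFN-gamma mixture; protective hits raise ATP signal compared with cytokine alone wells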
[12] = target: T4, Calpain-2 catalytic subunit (Sus scrofa, UniProt P43367); test: pig calpain II inhibitor potency, dose response, biochemical, fluorogenic peptide substrate (AID 1420); format: functional
T4 sequence (P43367 whole entry): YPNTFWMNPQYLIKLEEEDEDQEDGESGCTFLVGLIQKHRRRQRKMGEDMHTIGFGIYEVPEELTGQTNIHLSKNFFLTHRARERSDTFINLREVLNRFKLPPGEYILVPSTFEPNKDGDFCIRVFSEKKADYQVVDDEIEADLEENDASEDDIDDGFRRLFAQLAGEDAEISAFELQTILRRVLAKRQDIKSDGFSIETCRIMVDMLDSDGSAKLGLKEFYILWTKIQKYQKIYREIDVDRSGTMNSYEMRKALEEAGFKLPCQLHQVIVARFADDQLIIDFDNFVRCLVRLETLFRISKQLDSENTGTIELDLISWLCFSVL

[13] = target: T5, High affinity choline transporter 1 (Homo sapiens, UniProt Q9GZV3); test: CHT inhibitors, dose response, cell-based, 5-point CRC, membrane potential dye (AID 504840); format: functional
T5 sequence (Q9GZV3 whole entry): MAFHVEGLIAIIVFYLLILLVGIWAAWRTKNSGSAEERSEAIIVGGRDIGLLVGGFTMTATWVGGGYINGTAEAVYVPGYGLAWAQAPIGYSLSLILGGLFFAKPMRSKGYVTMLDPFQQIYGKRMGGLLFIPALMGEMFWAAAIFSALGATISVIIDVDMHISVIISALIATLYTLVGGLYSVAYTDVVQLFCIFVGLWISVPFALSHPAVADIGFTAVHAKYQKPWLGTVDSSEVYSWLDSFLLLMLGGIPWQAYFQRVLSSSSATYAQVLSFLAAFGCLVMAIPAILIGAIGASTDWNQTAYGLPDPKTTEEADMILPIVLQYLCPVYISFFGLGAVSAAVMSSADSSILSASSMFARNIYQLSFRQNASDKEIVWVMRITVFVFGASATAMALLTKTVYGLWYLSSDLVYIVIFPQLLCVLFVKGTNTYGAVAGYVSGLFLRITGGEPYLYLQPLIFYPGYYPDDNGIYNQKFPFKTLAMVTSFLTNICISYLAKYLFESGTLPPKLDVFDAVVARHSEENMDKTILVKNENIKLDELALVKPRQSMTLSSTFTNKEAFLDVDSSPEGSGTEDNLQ

[14] = target: T6, Carboxy-terminal domain RNA polymerase II polypeptide A small phosphatase 1 (Homo sapiens, UniProt Q9GZU7); test: inhibitors of CTDSP1, concentration-response testing, biochemical assay, absorbance-based, actives from ultra-high-throughput screening (AID 540297); format: functional
T6 sequence (Q9GZU7 whole entry): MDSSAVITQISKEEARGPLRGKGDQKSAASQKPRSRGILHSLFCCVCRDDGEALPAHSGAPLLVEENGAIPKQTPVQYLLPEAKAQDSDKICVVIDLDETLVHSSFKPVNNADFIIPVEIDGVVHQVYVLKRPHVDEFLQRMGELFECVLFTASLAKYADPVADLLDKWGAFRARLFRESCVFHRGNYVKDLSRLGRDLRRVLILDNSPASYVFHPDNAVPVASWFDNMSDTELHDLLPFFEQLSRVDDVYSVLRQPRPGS

[15] = inhibitors of HIV Env-driven cell fusion, dose response, cherry-pick (AID 652057); format: functional, cell-based
[16] = inhibitors of clade B AD8 Env fusion, dose response, cell-based, cherry-pick (AID 652062); format: functional;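 also: luciferase signal from cell-cell fusion driven by HIV-1 clade B AD8 Env; potency is for inhibitors of fusion seen as a drop in luminescence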
[17] = P. falciparum ATP4 D1247Y mutant growth inhibitors, dose response, NITD609-resistant line, SYBR Green, dry powder (AID 1159571); format: functional, cell-based;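 also: parasites synchronized at ring stage by sorbitol before testing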
[18] = P. falciparum 3D7-ScDHODH growth inhibitors, dose response, SYBR Green, dry powder samples (AID 1159570); format: functional, cell-based;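 also: parasite growth measured after 72 hours of compound exposure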
[19] = P. falciparum Dd2 growth inhibitors, dose response, SYBR Green, cherry-picked samples (AID 1159567); format: functional, cell-based
[20] = P. falciparum Dd2 growth inhibitors, dose response, SYBR Green, dry powder samples (AID 1159566); format: functional, cell-based;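 also: potency for growth inhibition with lower SYBR green DNA signal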

Compound: COCCn1c(-c2ccc(OC(F)(F)C(F)C(F)(F)F)cc2)nc2c1c(=O)[nH]c(=O)n2CC(C)C (configuration not stated)
- CC50 [1]: > 40 µM (active)

Compound: CCn1c(CNc2ccc(Cl)cc2)nnc1SCc1ccc(C)cc1
- AC50 [2]: 8.07 µM (active)

Compound: Cc1ccc(N2C(=O)C3CC(c4ccccc4)=C4C5C=CC(C6C(=O)N(c7ccc(C)cc7C)C(=O)C56)C4C3C2=O)c(C)c1 (configuration not stated)
- EC50 [3]: > 260 µM (inactive)
- EC50 [4]: 2.49 µM (active)
- IC50 (Fatty acid synthase [5]): 10.3 µM (active)
- EC50 [6]: > 60 µM (not active)
- IC50 (Fatty acid synthase [7]): 17.4 µM (active)

Compound: Cc1cc(-c2cc(-c3ccc(Cl)cc3)nc(N)c2C#N)co1
- AC50 (Cytochrome P450 3A4): 17.8 µM (inconclusive)
- EC50 [8]: 20.9 µM (active)
- EC50 [9]: > 120 µM (not active)
- EC50 [10]: > 120 µM (not active)
- AC50 [2]: 6.87 µM (active)

Compound: Cc1ccc(Cn2c(C(CO)Nc3nc(-c4ccc(F)cc4)cs3)nc3ccccc32)cc1 (configuration not stated)
- EC50 [11]: 5.27 µM (active)
- CC50 [1]: 28.5 µM (active)
- EC50 (Streptokinase A): > 150 µM (not active)
- EC50 (Streptococcus): 5.23 µM (active)

Compound: O=C(NNc1c(Cl)cc(Cl)cc1Cl)c1cccc([N+](=O)[O-])c1
- IC50 (Fatty acid synthase [5]): 6.77 µM (active)
- IC50 (Fatty acid synthase [7]): 10.7 µM (active)
- AC50 (INS1): 3.93 µM (active)

Compound: COc1ccc(C(=O)N2CCN(c3ncnc4c(-c5ccccc5)nsc34)CC2)cc1
- IC50 [12]: 4.3 µM (not active)

Compound: C/C(=N\NC(=N)N)c1ccccc1
- IC50 [13]: 13.5 µM (active)

Compound: CCOc1ccccc1C(O)C1=CC(=O)c2ccccc2C1=O (configuration not stated)
- IC50 [14]: 4.16 µM (active)

Compound: CC(=O)N(C)c1ccc(OCC(O)CN(c2ccccc2C)S(=O)(=O)c2ccc(C)cc2)cc1 (configuration not stated)
- IC50 [13]: 11.8 µM (active)

Compound: C[C@H]1CN([C@@H](C)CO)C(=O)c2cc(NC(=O)Nc3ccc4c(c3)OCO4)ccc2O[C@H]1CN(C)S(=O)(=O)c1ccc(F)cc1
- AC50 [15]: 15.2 µM (active)
- AC50 [16]: 39 µM (active)

Compound: O=C(CC(=O)N/N=C\c1ccc([N+](=O)[O-])cc1)NCCc1ccccc1
- IC50 (Fatty acid synthase [5]): 20.3 µM (inactive)
- IC50 (Fatty acid synthase [7]): 23.6 µM (inactive)

Compound: Cc1cc(/C=N/NC(=O)C(=O)NCc2ccccn2)c(C)n1-c1cccc(Br)c1
- IC50 [12]: < 0.4 µM (not active)

Compound: CC(C)NC(=O)Nc1ccc2c(c1)C(=O)N(C)[C@H]1CC[C@H](CC(=O)Nc3ccccc3)O[C@H]1CO2
- AC50 [17]: 1.23 µM (active)
- AC50 [18]: 1.23 µM (active)
- AC50 [19]: 1.25 µM (active)
- AC50 [20]: 1.26 µM (active)
